In patent US9796777B2, “Methods of treating malignant tumors” (Canimguide Therapeutics AB, priority 2007, dated 2017):

Legend:
Type in all cases: cell-based, human
PBMCs = test: PHA-induced proliferation of PBMC in the presence of albumin peptides and/or dHSA; conditions: PBMCs from two healthy controls; two PHA concentrations
Text: Venous blood was drawn from healthy volunteers or from cancer patients in glass vacuum tubes with acid dextrose citrate solution A as anti-coagulant (Vacutainer, Becton Dickinson, Franklin Lakes, N.J.). Erythrocytes were removed by sedimentation on 2% dextran T500 solution (Amersham Pharmacia Biotech AB, Uppsala, Sweden) in 0.9% NaCl (this step was omitted for cultures with PHA-stimulation-see below). […] For cell cultures with PHA-stimulation, PBMC were washed in Hank's Balanced Salt Solution (HBSS) with 10% autologous plasma instead of RPMI/2% HSA. […] The cell suspension was stained with Turk's solution and the number of lymphocytes and monocytes in the PBMC preparation were counted in a hemocytometer. PBMCs were suspended in RPMI/2% HSA and the cell concentration adjusted to 5×10^5 lymphocytes/ml.
100 μl of the cell suspension were seeded into round-bottomed microtiter plates (Corning, N.Y., USA) followed by 100 μl of culture medium consisting of RPMI 1640 (Flow Laboratories, Irvine, Scotland) supplemented with 200 IU/ml Penicillin, 200 μg/ml Streptomycin (Flow laboratories) and 20% heat inactivated autologous serum. Phytohemagglutinin (PHA-P, Sigma Chemical Co, St. Louis, Mo.) at a final concentration of 5 or 10 μg/ml was then added.
All culture conditions were set up in triplicate wells. […] Mean values of disintegrations per minute (dpm) of triplicates were used for the calculations.

PBMC [1] = test: IL-2 induced proliferation of PBMC with albumin peptides in coated and uncoated tissue culture plates
Method: A mixture of 1 mg/ml IgG in a solution of 9 mg/ml HSA in RPMI (HSA/IgG) was also prepared. 200 μl of HSA or HSA/IgG were then added to each well of the plate. The plates were incubated at 4° C. for 30 minutes after which the wells were washed twice with 200 μl of RPMI1640. The coated plates were used immediately. […] PBMC, isolated from healthy individuals, were diluted in RPMI/2% HSA and peptides were added directly to the cell suspension at a concentration of 10 μg/ml.

PBMC [2] = test: LPS-induced IL-6 production by PBMC, effect of peptides; conditions: three cancer patients
Method: 100 μl of culture medium consisting of RPMI1640 supplemented with 200 IU/ml penicillin, 200 μg/ml streptomycin, 4 mM L-glutamine (Sigma Chemical, Mo., US) and 20% fresh heat-inactivated autologous serum were added to un-coated or -pre-coated microtiter plates followed by 100 μl of PBMC suspension (5×10^4 lymphocytes) in RPMI/2% HSA with peptides at the indicated concentrations. Lipoplysaccharide (LPS, Sigma Chemical Co, MO, US) was added at a final concentration of 0.05 ng/ml. […] All assay conditions were set up in triplicate wells. Supernatants (SNs) were harvested after 24 hrs and residual cells were removed by centrifugation in a refrigerated centrifuge (Beckman) at 2600×g for 5 minutes. SNs were frozen and stored at −70° C. IL-6 in cell culture SNs was measured by ELISA using the DuoSet® ELISA development kit for human IL-6 (R&D Systems Europe, Ltd., Abingdon, UK) following the manufacturer's recommended procedures. The lower limit of detection was 3.1 pg/ml. Samples were analysed as mean of triplicate wells.

[3] = test system: natural killer (NK) cells; test: Cytotoxic activity of natural killer (NK) cells against K562 (NKTEST, flow cytometry); conditions: four healthy donors; peptides 10 ug/ml; effector:target ratio 40:1
Method: Mononuclear cells were separated by standard Ficoll-paque Plus (Pharmacia AB, Sweden) density gradient centrifugation from heparinized blood obtained from healthy donors. NK cell cytotoxic activity of the mononuclear cells was then tested using a commercial kit (NKTEST, Orpegen Pharma GmbH, Heidelberg, Germany) following the manufacturers protocol. Briefly, the kit contains cryopreserved, NK-sensitive target cells (K562) labelled with a lipophilic green fluorescent membrane dye, which enables discrimination of effector and target cells. After incubation with effector cells, killed target cells are identified by a DNA-stain, which penetrates and specifically stain the nuclei of dead target cells. This way the percentage of killed targets can be determined by flow cytometry. The mononuclear cells were pre-incubated for 30 min at 37° C. with the indicated peptides (peptides have been described previously) at 10 ug/ml. Target cells were then added, giving an effector:target ratio of 40:1, and the cell mixture incubated at 37° C. for 3-4 hours. Samples were analysed on a FACSCalibur (BD Biosciences, San Jose, Calif.).

VFDEFKPLVEEPQNLIK [peptide 3028]
effect on dHSA modulated PHA stimulated proliferation (PBMCs): inhibited the stimulatory activity of dHSA | inhibitory effect on IL-2 induced proliferation under modulation of the Fc-receptor cross-linking (PBMC [1]; HSA/IgG coated plates): completely reversed | effect on IL-2 induced proliferation (PBMC [1]; PBMC from healthy individuals, peptide 5 μg/ml final, 7 days): highly inhibitory | effect on LPS induced IL-6 production (PBMC [2]): essentially no effects | effect on percent specific lysis of K562 target cells [3]: reduced the percent specific lysis of K562 target cells by all four donors
